Source: ChEMBL document CHEMBL1765007, “Synthesis and biological evaluation of new 2-alkylaminoethyl-1,1-bisphosphonic acids against Trypanosoma cruzi and Toxoplasma gondii targeting farnesyl diphosphate synthase” (Bioorg Med Chem, 2011)

Experiments:
Trypanosoma cruzi = test: Antiparasitic activity against Trypanosoma cruzi amastigotes infected in gamma-irradiated vero cells assessed as growth inhibition by fluorescence assay; assay type: functional, organism-based; details: light or radiation study
[1] = biological target: T1, Farnesyl diphosphate synthase (Trypanosoma cruzi, UniProt Q8WS26); test: Inhibition of Trypanosoma cruzi FPPS after 30 mins using [14C]IPP by scintillation counting
T1 sequence (Q8WS26 whole entry): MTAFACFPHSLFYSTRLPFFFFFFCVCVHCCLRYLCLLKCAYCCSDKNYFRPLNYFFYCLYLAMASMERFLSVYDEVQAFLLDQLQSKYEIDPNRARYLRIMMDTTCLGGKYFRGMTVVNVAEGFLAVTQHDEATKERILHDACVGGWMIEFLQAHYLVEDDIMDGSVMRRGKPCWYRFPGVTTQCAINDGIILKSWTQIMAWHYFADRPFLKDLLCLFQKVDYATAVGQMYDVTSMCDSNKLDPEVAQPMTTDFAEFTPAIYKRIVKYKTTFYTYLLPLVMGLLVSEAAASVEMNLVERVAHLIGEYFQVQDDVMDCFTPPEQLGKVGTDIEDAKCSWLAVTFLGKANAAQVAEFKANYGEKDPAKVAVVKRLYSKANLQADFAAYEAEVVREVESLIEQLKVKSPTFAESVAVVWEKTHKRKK

[2] = biological target: T2, Farnesyl diphosphate synthase (Toxoplasma gondii, UniProt Q197X6); test: Inhibition of Toxoplasma gondii FPPS after 30 mins using [14C]IPP by scintillation counting
T2 sequence (Q197X6 whole entry): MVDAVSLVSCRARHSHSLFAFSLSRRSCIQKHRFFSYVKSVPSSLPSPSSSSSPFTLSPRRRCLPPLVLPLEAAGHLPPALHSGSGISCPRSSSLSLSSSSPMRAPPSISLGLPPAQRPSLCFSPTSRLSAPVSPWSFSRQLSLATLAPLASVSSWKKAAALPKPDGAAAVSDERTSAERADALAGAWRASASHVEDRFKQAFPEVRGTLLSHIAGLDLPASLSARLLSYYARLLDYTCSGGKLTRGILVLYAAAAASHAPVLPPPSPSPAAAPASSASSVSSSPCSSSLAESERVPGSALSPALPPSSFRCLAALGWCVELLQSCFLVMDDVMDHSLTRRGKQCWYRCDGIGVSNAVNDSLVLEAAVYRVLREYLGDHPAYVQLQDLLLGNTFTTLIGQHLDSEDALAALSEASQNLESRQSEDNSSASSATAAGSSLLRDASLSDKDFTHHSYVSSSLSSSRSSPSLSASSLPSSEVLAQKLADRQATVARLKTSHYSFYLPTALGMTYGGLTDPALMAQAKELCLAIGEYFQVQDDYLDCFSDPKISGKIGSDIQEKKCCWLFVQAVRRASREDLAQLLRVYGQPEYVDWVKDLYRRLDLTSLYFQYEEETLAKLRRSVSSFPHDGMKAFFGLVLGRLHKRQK

Toxoplasma gondii [3] = test: Antiparasitic activity against Toxoplasma gondii tachyzoite expressing red fluorescence protein assessed as growth inhibition by fluorescence plate reader; assay type: functional, organism-based
Toxoplasma gondii [4] = test: Antiparasitic activity against Toxoplasma gondii assessed as growth inhibition; assay type: functional, organism-based

| Structure (SMILES) | IC50 (Trypanosoma cruzi) | IC50 [1] | IC50 [2] | IC50 (Toxoplasma gondii [3]) | IC50 (Toxoplasma gondii [4]) |
| --- | --- | --- | --- | --- | --- |
| CCCCCCCCCCCCNCC(P(=O)(O)O)P(=O)(O)O | 0.67 µM | 0.811 µM | 0.093 µM | 6.23 µM |  |
| CCCCCCCCCNCC(P(=O)(O)O)P(=O)(O)O | > 10 µM | 0.43 µM | 0.44 µM | > 10 µM |  |
| CCCCCCCCCCCCCCCCNCC(P(=O)(O)O)P(=O)(O)O | 2.19 µM |  |  | 4.13 µM |  |
| O=C(Cn1ccnc1[N+](=O)[O-])NCc1ccccc1 [BENZNIDAZOLE] | 2.77 µM |  |  |  |  |
| CCCCCCCCCCNCC(P(=O)(O)O)P(=O)(O)O | > 10 µM | > 1 µM | 0.068 µM | > 10 µM |  |
| O=P(O)(O)C(CNCc1ccccc1)P(=O)(O)O | > 10 µM | > 1 µM |  | > 10 µM |  |
| CCCCCCCCCCCNCC(P(=O)(O)O)P(=O)(O)O | 5.13 µM | 0.856 µM | 0.868 µM | > 10 µM |  |
| CCCCCCCCCCCCCCNCC(P(=O)(O)O)P(=O)(O)O | > 10 µM | > 1 µM | 0.292 µM | 11.3 µM |  |
| CCCCCCCCCCCCCCCCCCNCC(P(=O)(O)O)P(=O)(O)O | > 10 µM |  |  | 5.29 µM |  |
| CCCCCCNCC(P(=O)(O)O)P(=O)(O)O | 0.84 µM |  |  |  | 9.37 µM |
